The conditions of series [1]: cited from earlier work.
Series [2] has as its system human smooth muscle cells. As to the kind of experiment: Inhibition of human vascular cell proliferation with cladribine, smooth muscle cells, PDGF-stimulated cell count. The class given is cell-based. The conditions noted are these: from IC50 values 23 and 40 nanomolar. How it is done:
After twenty-four hours, the growth medium was changed and fresh medium containing 10 ng/ml platelet-derived growth factor AB (PDGF AB; LIFE Technologies), as well as various concentrations of cladribine (0.001-10,000 nM) were added with triplicate wells. Medium was replaced with fresh cladribine-containing medium after three days. On day six, cells were detached by trypsinization to yield a cell suspension, lightly centrifuged to pellet and then counted manually using a Neubauer hemocytometer system. Cell viability was assessed by trypan blue exclusion.

Series [3] has as its system non-synchronized cultured human coronary artery smooth muscle cells. As to the kind of experiment: Anti-proliferative activity in non-synchronized cultured human coronary artery smooth muscle cells stimulated with two percent fetal bovine serum. Type of series: cell-based. From the text: The multiple curves represent various concentrations of mycophenolic acid ranging from zero to one thousand nanomolar concentrations.
FIG. 58 illustrates, in graphical format, the anti-proliferative activity of cladribine in non-synchronized cultured human coronary artery smooth muscle cells stimulated with two percent fetal bovine serum.
The multiple curves represent various concentrations of cladribine ranging from zero to nine hundred nanomolar concentrations.

The nature of series [4]: In vitro release kinetics of cladribine from PVDF/HFP coatings in twenty-five percent ethanol/water. Type of series: in vitro ADME. The settings on record: room temperature. From the text: FIG. […] The basecoat comprises a ratio of PVDF/ HFP (85/15) and cladribine. Cladribine comprises thirty percent of the basecoat. The topcoat also comprises an 85/15 ratio of PVDF and HFP, but no cladribine. Curve 5902 represents the release kinetics of cladribine wherein the basecoat weight is six hundred micrograms (one hundred eighty micrograms cladribine). Curve 5904 represents the release kinetics of cladribine wherein the basecoat weight is one thousand eight hundred micrograms (five hundred forty micrograms cladribine). Curve 5906 represents the release kinetics of cladribine wherein the basecoat weight is six hundred micrograms (one hunded eighty micrograms cladribine) and the topcoat weight is one hundred micrograms. Curve 5908 represents the release kinetics of cladribine wherein the basecoat weight is one thousand eight hundred micrograms (five hundred forty micrograms cladribine) and the topcoat is three hundred micrograms. Curve 5910 represents the release kinetic of cladribine wherein the basecoat weight is six hundred micrograms (one hundred eighty micrograms cladribine) and the topcoat is three hundred micrograms.
FIG. 60 is a graphical representation of the in vitro release kinetics of cladribine from a sterile PVDF/HFP coating incorporated in a twenty-five percent ethanol/water release medium at room temperature. […]

Series [5] can be described thus: In vivo release kinetics of cladribine and rapamycin from coated Bx Velocity stents in Yorkshire pigs. Also noted: species or system Yorkshire pig.
Text: FIG. 61 is a graphical representation of the in vivo release kinetics of cladribine from a polymeric coating on Bx Velocity® stents, available from Cordis Corporation, implanted in a Yorkshire pig. The basecoat comprises an 85/15 ratio of PVDF and HFP and cladribine for a total combined weight of one thousand eight hundred micrograms (cladribine comprising thirty percent of the total weight). […]
(§1) The basecoat is applied to Bx Velocity® stents and implanted into Yorkshire pigs.
as §1

Series [6] is described as follows: In vivo release kinetics of rapamycin and mycophenolic acid from polymer coatings, porcine pharmacokinetics studies. From the text:
The topcoat is two hundred micro grams.

Series [7] in a line: In vitro release kinetics of rapamycin from a combination of rapamycin and mycophenolic acid. The class given is in vitro ADME. The conditions noted are these: FIG. 55. From the text:
The in vitro tests were run twice for each coating scenario.

Series [8] relates to synchronized cultured human coronary artery smooth muscle cells. Kind of series: Anti-proliferative activity in synchronized cultured human coronary artery smooth muscle cells stimulated with two percent fetal bovine serum. The class given is cell-based. The conditions noted are these: topotecan zero to three hundred nanomolar, FIG. 64. From the text: (§2) The multiple curves represent various concentrations of topotecan ranging from zero to three hundred nanomolar concentrations.

Another series relates to cell viability. As to the kind of experiment: Separate cell viability assay of topotecan. Type of series: cell-based. The settings on record: concentrations up to one micromolar.
Text: as §2

Series [9] concerns human coronary artery smooth muscle cell. The conditions noted are these: Brehm et al., 2000; cited from earlier work.
The test system is the same in series [10]. Kind of series: Inhibition of coronary artery smooth muscle cell proliferation by trichostatin A, in vitro cell culture. Type of series: cell-based. From the text:
FIG. 51 is a graph of the inhibition of coronary artery smooth muscle cells by trichostatin A in a cell culture study.

Another series concerns tumor cell lines. The settings on record: tumor cell lines (Woo et al., 2002); cited from earlier work.

“Also recorded” adds a separate entry of the source. Like-named read-outs stand apart in the source and are kept apart here.

For the compound `CC[C@@]1(O)C(=O)OCc2c1cc1n(c2=O)Cc2cc3ccccc3nc2-1` [Camptothecin, camptothecin], in series [1], the lipid solubility result is on record as “high lipid solubility” and the water solubility entry was “poor water solubility”.

On to `Nc1nc(Cl)nc2c1ncn2[C@H]1C[C@H](O)[C@@H](CO)O1` [Cladribine, 2-chlorodeoxyadenosine], for which the “potency as inhibitor of smooth muscle cells relative to endothelial cells” value in [2] is given as “approximately twice as potent”. For the same compound, the “inhibition of human coronary artery smooth muscle cell proliferation” value (“inhibition” for short) in series [3] (cladribine alone, FIG. 58) is given as “completely inhibits”. Moreover, in series [3] (cladribine zero to nine hundred nanomolar, FIG. 57), the “effect of added cladribine on the anti-proliferative rapamycin dose response curve” value is reported as “potentiate the anti-proliferative activity of rapamycin; also recorded: increases the percent inhibition of rapamycin alone”. Moreover, the “in vitro release rate of cladribine, effect of topcoat weight” value in [4] (non-sterile PVDF/HFP (85/15) coatings, FIG. 59) was “an increase in topcoat weight or thickness led to a decrease in the release rate of cladribine”. Besides, the “in vitro release rate of cladribine, effect of topcoat” value in series [4] (sterile PVDF/HFP coating, FIG. 60) is reported as “a three-times topcoat led to a drastic decrease of release rate”. Besides, the “in vivo elution of cladribine compared with rapamycin” value in series [5] (EVA/BMA basecoat, 200 μg BMA topcoat, Yorkshire pigs, FIG. 63) is on record as “elutes more rapidly than rapamycin”. Besides, the “in vivo elution of cladribine over time” value in series [5] (PVDF/HFP 85/15 basecoat 1800 μg (thirty percent cladribine), 300 μg topcoat, Yorkshire pig, FIG. 61) is on record as “after the first day, the elution of cladribine levels off significantly”.

Regarding `CO[C@H]1C[C@@H]2CC[C@@H](C)[C@@](O)(O2)C(=O)C(=O)N2CCCC[C@H]2C(=O)O[C@H]([C@H](C)C[C@@H]2CC[C@@H](O)[C@H](OC)C2)CC(=O)[C@H](C)/C=C(\C)[C@@H](O)[C@@H](OC)C(=O)[C@H](C)C[C@H](C)/C=C/C=C/C=C/1C` [Rapamycin, rapamycin], the “in vivo release of rapamycin from EVA/BMA basecoat, effect of BMA topcoat” value in series [6] (600 μg basecoat with 180 μg rapamycin and 180 μg mycophenolic acid, no, 100 or 200 μg BMA topcoat, FIG. 53) is listed as “BMA topcoat does slow the release of rapamycin from the basecoat”. The “in vivo release rate of rapamycin compared with mycophenolic acid” value in series [6] (PVDF basecoat 600 μg with PVDF topcoat 200 μg, FIG. 56) was “slower release rate than that of mycophenolic acid”. For the same compound, the “in vitro release of rapamycin from EVA/BMA basecoat, effect of BMA topcoat” value in [7] (600 μg basecoat with 180 μg rapamycin and 180 μg mycophenolic acid) is on record as “BMA topcoat does slow the release of rapamycin from the basecoat in in vitro testing”. Besides, the “in vitro release rates of rapamycin compared with in vivo” value in [7] (EVA/BMA basecoat) is “release rates are faster than in the in vivo testing”. In addition, the “in vivo release rates of rapamycin from rapamycin/cladribine EVA/BMA basecoats” value in series [5] (three rapamycin/cladribine loadings, 200 μg BMA topcoat, Yorkshire pigs, FIG. 62) is “substantially similar to one another”.

`CC[C@@]1(O)C(=O)OCc2c1cc1n(c2=O)Cc2cc3c(CN(C)C)c(O)ccc3nc2-1` [Topotecan, topotecan]: the “effect of added topotecan on the anti-proliferative rapamycin dose response curve” value in series [8] was “potentiate the anti-proliferative activity of rapamycin; also recorded: increases the percent inhibition of rapamycin alone”. The “cytotoxicity in cell viability assay” value in the series on cell viability is reported as “non-cytotoxic”. For the same compound, in series [9], the “inhibition” value is reported as “inhibit human coronary artery smooth muscle cell proliferation”.

For the compound `COc1c(C)c2c(c(O)c1C/C=C(\C)CCC(=O)O)C(=O)OC2` [mycophenolic acid], the “effect of added mycophenolic acid on the anti-proliferative rapamycin dose response curve” value in [3] (mycophenolic acid zero to one thousand nanomolar, FIG. 52) is “potentiates the anti-proliferative activity of rapamycin”. Moreover, the “in vivo release of mycophenolic acid from EVA/BMA basecoat, effect of BMA topcoat” value in series [6] (600 μg basecoat with 180 μg rapamycin and 180 μg mycophenolic acid, no, 100 or 200 μg BMA topcoat, FIG. 54) is given as “BMA topcoat does slow the release of mycophenolic acid from the basecoat”. Besides, in series [6] (EVA/BMA basecoat, FIG. 53 and 54), the “in vivo elution of mycophenolic acid compared with rapamycin” value is “elutes more completely over a shorter duration than the rapamycin”.

For `CC(/C=C/C(=O)NO)=C\[C@@H](C)C(=O)c1ccc(N(C)C)cc1` [trichostatin A], the “inhibition” value in [10] (FIG. 51) is recorded as “completely inhibit”. Also, the 50% inhibitory concentration (IC50) in [10] (read-out: anti-proliferative IC50) was around 6 nM. The “anti-proliferative IC50” value in the series on tumor cell lines is “low nM range”.

As a reminder, the IC50 is the concentration needed to halve the response being measured.

Source of the values: US8828416B2 (Cordis Corporation, priority 2004, dated 2014).
